The values that follow come from patent publication US8101760B2, “Glucocorticoid receptor modulator and methods of use” (Eli Lilly and Company, priority 2007, dated 2012).

The target in data set [1] is T1, human mineralocorticoid receptor (MR) (Homo sapiens, UniProt P08235).
T1 construct: expressed in transfected cells; host or cells: HEK293, transient transfection (Fugene), CMV promoter plasmid
T1 sequence (P08235 1-984): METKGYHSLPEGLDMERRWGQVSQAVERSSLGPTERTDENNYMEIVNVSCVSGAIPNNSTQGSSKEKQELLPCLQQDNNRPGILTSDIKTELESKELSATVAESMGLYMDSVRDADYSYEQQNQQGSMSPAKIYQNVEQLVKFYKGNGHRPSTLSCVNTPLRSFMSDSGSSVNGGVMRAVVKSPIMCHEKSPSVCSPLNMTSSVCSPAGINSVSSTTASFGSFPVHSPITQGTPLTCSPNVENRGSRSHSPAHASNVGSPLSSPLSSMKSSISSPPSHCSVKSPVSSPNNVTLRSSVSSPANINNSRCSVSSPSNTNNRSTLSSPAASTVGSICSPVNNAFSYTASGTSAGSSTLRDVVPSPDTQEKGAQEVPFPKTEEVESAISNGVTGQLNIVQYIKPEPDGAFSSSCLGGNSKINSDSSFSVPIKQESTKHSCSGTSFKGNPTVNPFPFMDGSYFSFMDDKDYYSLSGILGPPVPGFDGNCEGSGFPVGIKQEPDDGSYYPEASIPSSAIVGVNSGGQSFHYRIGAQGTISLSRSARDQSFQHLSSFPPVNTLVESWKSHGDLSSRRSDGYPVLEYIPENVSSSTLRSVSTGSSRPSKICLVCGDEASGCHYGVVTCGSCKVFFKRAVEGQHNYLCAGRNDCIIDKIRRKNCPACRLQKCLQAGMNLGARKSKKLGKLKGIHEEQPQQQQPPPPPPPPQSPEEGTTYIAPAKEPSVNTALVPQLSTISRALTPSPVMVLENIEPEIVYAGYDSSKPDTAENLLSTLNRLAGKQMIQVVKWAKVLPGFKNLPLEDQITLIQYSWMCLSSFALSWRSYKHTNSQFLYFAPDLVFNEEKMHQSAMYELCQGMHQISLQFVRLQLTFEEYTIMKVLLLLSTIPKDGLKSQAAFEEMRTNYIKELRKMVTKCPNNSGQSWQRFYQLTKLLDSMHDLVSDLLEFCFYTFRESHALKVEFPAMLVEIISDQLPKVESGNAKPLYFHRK
Briefly: Nuclear hormone receptor functional modulation assay (GRE-luciferase, HEK293), MR. It counts as cell-based. The source says: The solvents, reagents, and ligands employed in the functional assay are readily available from commercial sources, or can be prepared by one of ordinary skill in the art.
Human embryonic kidney HEK293 cells are transfected with steroid hormone receptor and reporter gene plasmids using Fugene™ (Roche Diganostics) transfection reagent. Briefly, the reporter plasmid containing two copies of probasin ARE (androgen response element 5′GGTTCTTGGAGTACT3′ (SEQ ID NO:1)) and TK(thymidine kinase) promoter upstream of the luciferase reporter cDNA, is transfected into HEK293 cells with a plasmid constitutively expressing human androgen receptor (AR) using viral CMV(cytomegalovirus) promoter. The reporter plasmid containing two copies of GRE (glucocorticoid response element 5′TGTACAGGATGTTCT′3 (SEQ ID NO:2)) and TK promoter upstream of the luciferase reporter cDNA is transfected with a plasmid constitutively expressing either human glucocorticoid receptor (GR), human mineralocorticoid receptor (MR), or human progesterone receptor (PR) using viral CMV promoter. Cells are transfected in T150 cm flasks in DMEM media with 5% charcoal-stripped Fetal Bovine Serum (FBS). […] In the antagonist mode for the assays, low concentrations of agonist for each respective receptor are added to the media (0.25 nM dexamethasone for GR, 0.3 nM of methyltrienolone for AR, 0.05 nM of promegestone for PR and 0.05 nM aldosterone for MR), and the ability of test compound to antagonize the agonist response is determined. After 24 hours of incubation with test compounds, cells are lysed and luciferase activity is determined using standard techniques.
Data are fitted to a four parameter-fit logistic curve fit to determine EC50 values. […] IC50 values may be determined similarly using antagonist mode assay data. Percent inhibitions may also be determined relative to the response in the presence of agonist alone, as described above.

Data set [2] in a line: Metabolic profiling of plasma after in vivo administration, dog.
The nature of data set [3]: In vitro assays of genotoxic potential.
Data set [4] relates to carrageenan-induced paw edema. Briefly: Carrageenan-induced paw edema (CPE) model. Type of data set: in vivo, rat. The conditions noted are these: rat; for ED50: oral gavage 2 h before carrageenan, 3 h after injection, mean of 5. The text has this:
Carrageenans are a group of polysaccharides which can induce an acute inflammatory response in animals. Cardinal signs of inflammation including edema, hyperalgesia and erythema are developed in the injection site immediately following injection. The CPE model (Winter et al., Proc. Soc. Exp. Biol. Med. 111, 544-547, 1962) is a recognized model of inflammation and can be used to evaluate the antinflammatory effects of glucocorticoid receptor ligands.
To evaluate the anti-inflammatory effects of Compound (I), the Compound (I) is formulated in a vehicle comprising 0.5% carboxymethyl cellulose and 0.25% Tween 80 then administered orally via gavage to male Sprague-Dawley rats (180-200 g) (Harlan Industries, Indianapolis, Ind.). For comparison, prednisolone is administered orally in the same vehicle. Two hours later, 1% carrageenan in 50 μL of 0.9% pyrogen free saline is injected into the subplantar regions of the right hind paw. Rats are euthanized by CO2 at 3 hours after the carrageenan injection. Paws are removed then weighed using a microbalance. Paws are then immediately immersed into liquid nitrogen until frozen. Frozen paws are dissected by making several cuts on the paw surface then centrifuged to extract the exudates. Exudate levels of IL-1β, a cytokine generated during the inflammatory response, is then measured by ELISA (R&D Systems, Inc., Catalog No. RLB00) using standard techniques. Total paw protein is also measured using a protein assay kit (Pierce Biotechnology, Inc., Rockford, Ill., U.S.A., Catalog No. 1856210) and the absolute level of IL-1β is normalized to yield a concentration value of ng IL-1β/mg total protein.
Background: Carrageenan injected into the paw causes an acute inflammation.

Data set [5] is described as follows: Metabolic profiling of plasma after in vivo administration, rat.
Data set [6] is described as follows: Bioavailability and plasma exposure after oral administration to test animals. It counts as in vivo.

Where two headings read alike, the source gives them in different places. Where only a bound is given, the exact number is not on record here.

As a reminder, the EC50 is the concentration giving half of the maximal effect. Read a low EC50 as an effect from little substance. As a reminder, the ED50 is the dose that gives a 50% effect, or the effect in half of the subjects.

Turning to `CC/C(=C1\c2ccc(Cl)cc2OCc2ncccc21)c1cccc(NS(C)(=O)=O)c1` [Compound (I), (E)-N-{3-[1-(8-Chloro-11H-10-oxa-1-aza-dibenzo[a,d]cyclohepten-5-ylidene)-propyl]-phenyl}-methanesulfonamide], the EC50 in data set [1] (agonist mode, activating transcription) is more than 10 µM. For the same molecule, the “modulation of gene expression mediated by MR” value in data set [1] (functional modulation, in words) is on record as “only limited activity”. For the same molecule, the “MR % Eff.” value in data set [1] (percent efficacy at 10 μM relative to 30 nM aldosterone, mean of 3) was found to be 8.5%. For the same molecule, the “circulating entity in plasma” value in data set [2] was “major circulating entity”. In data set [3], the genotoxic potential entry is “non-genotoxic”. For the same molecule, in data set [4] (oral administration, in words), the “inhibition of carrageenan induced paw edema” value is “dose dependently inhibits” and the “production of interleukin-1-beta (IL-1β)” value is “inhibits production”. The ED50 in data set [4] (read-out: ED50, inhibition of carrageenan induced paw weight gain) is approximately 1.2 mg/kg. Moreover, in data set [4] (read-out: ED50, reduction of paw exudate levels of IL-1β), the ED50 is approximately 0.31 mg/kg. In data set [5], the “circulating entity in plasma” value is “major circulating entity”. Further, in data set [6], the bioavailability entry was “good” and the plasma exposure result is listed as “good”.
